For one data set, the system named is Vero cells. Briefly: Cytotoxicity assay on Vero cells (resazurin). Type of data set: cell-based, African green monkey. As to conditions: 24 h treatment. A digest of the protocol: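 Vero cells seeded at 5 × 10^5 cells/well, grown 24 h at 37 °C, 5% CO2 in RPMI with 10% FBS. Compounds tested in triplicate by serial dilution from 500 µM to 3.9 µM for 24 h. Viability read as resazurin fluorescence.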
Background: Alamar Blue is a resazurin reagent that responds to reducing activity.

The test system of the next data set is Leishmania braziliensis. Briefly: Leishmanicidal activity against promastigotes (resazurin). It counts as cell-based. A digest of the protocol: (§1)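 Stationary-phase (day 5) metacyclic promastigotes were purified by centrifugation and plated at 1 × 10^7 parasites per well in Schneider medium. Compounds were tested in triplicate from 500 µM down to 3.9 µM by serial dilution for 24 h. Viability was read by resazurin fluorescence.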

In another data set the test system is Leishmania infantum. The data set is described as above. As to conditions: promastigote form, 24 h treatment, resazurin; read-out: IC50 L. infantum. It counts as cell-based. A digest of the protocol: as §1

Bounds are passed on as bounds.

One may read the CC50 as the concentration giving 50% cytotoxicity. The low end stands for harm at low concentration, the high end for better tolerance by the cells. By IC50 is commonly meant the concentration that inhibits the measured activity by half. In turn, `Cc1ccc(S(=O)(=O)NNC(Nc2ccc(F)cc2)=[S][Ag+][S]=C(NNS(=O)(=O)c2ccc(C)cc2)Nc2ccc(F)cc2)cc1.O=[N+]([O-])[O-]` [Ag3, [Ag(HL3^FPh)2]NO3] had a CC50 with Vero cells of more than 500 µM. Further, the half-maximal inhibitory concentration (IC50) in the data set with Leishmania braziliensis (promastigote form, 24 h treatment, resazurin, read-out: IC50 L. braziliensis) is 233.9 ± 0.031 µM; in the data set with Leishmania infantum, 92.83 ± 0.072 µM. Also, the “SI L. braziliensis” value in the data set on Leishmania braziliensis (selectivity index = CC50 (Vero) / IC50 (L. braziliensis promastigotes)) was more than 2.14.

These data come from publication PMC11053681, “Gold(I) and Silver(I) Complexes Containing Hybrid Sulfonamide/Thiourea Ligands as Potential Leishmanicidal Agents” (Pharmaceutics, 2024).
